The nature of data set [1]: Brain concentrations of harmine, DMT and metabolites by UHPLC-MS after s.c. harmine and/or DMT. The conditions noted are these: for concentration at 95 min / concentration at 65 min: rat, subcutaneous.
Experimental: Groups of (n = 6) rats received either saline, harmine (1 mg/kg), DMT (1 mg/kg), or harmine + DMT (1 mg/kg each) as subcutaneous injections, as indicated in Figure 1.
After 45 min, rats were sacrificed by decapitation, and the brains dissected into cerebellum and frontal cortex samples for radioactivity measurement and chemical analysis, thus 65 min after harmine + DMT.
Data set [2] has as its target MAO-A. The conditions noted are these: ref Maschauer et al., 2015; read-out: KD in vitro; cited from earlier work.
In data set [3] the target is T1, MAO-A (Rattus norvegicus, UniProt P21396).
T1 sequence (P21396 1-526): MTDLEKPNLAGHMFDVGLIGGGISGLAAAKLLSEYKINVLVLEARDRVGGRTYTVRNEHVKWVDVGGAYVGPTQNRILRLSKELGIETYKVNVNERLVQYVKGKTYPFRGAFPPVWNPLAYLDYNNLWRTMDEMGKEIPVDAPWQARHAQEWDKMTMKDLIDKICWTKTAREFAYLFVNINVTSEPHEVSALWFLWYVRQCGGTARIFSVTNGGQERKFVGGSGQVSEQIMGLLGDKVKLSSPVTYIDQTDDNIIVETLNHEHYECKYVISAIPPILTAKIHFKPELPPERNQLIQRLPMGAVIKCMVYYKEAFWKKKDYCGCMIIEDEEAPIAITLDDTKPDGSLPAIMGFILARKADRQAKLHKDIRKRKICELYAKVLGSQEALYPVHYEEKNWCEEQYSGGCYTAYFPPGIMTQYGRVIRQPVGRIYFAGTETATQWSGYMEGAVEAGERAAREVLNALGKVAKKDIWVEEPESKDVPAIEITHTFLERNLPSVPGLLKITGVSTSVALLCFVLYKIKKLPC
Further details: method as in Maschauer et al., 2015. The note with it: ref Maschauer et al., 2015; read-out: Apparent affinity (KD) at MAO-binding sites in living rat brain; cited from earlier work.

Data set [4] addresses T1, MAO-A. The experiment in a line: Apparent affinity at MAO binding sites in living brain. The class given is in vivo. The note with it: from values of ref Maschauer et al., 2015.
Data set [5] relates to 5-HT2A receptors. The conditions noted are these: cited from earlier work.
[6] abbreviates: Exp 1, group DMT, average of regions.
[7] abbreviates: Exp 1, group Har + DMT, average of regions.
Setting [8] is: Exp 1, group Har + DMT, cerebellum.
Where [9] appears, read: Exp 1, group Har + DMT, front cort.
Where [10] appears, read: Exp 2, group Har + DMT, average of regions.
Setting [11] is: Exp 2, group Har + DMT, cerebellum.
Where [12] appears, read: Exp 2, group Har + DMT, front cort.
Setting [13] is: brain (average of frontal cortex and cerebellum), 1 mg/kg, Molar concentration, Exp 1, group DMT, average of regions.
The mark [14] stands for this setting: brain (average of frontal cortex and cerebellum), Molar concentration, Exp 1, group Har + DMT, average of regions.
Where [15] appears, read: brain (average of frontal cortex and cerebellum), Molar concentration, Exp 2, group Har + DMT, average of regions.
The mark [16] stands for this setting: cerebellum, 1 mg/kg, Molar concentration, Exp 1, group DMT, cerebellum.
[17] abbreviates: cerebellum, Molar concentration, Exp 1, group Har + DMT, cerebellum.
[18] abbreviates: cerebellum, Molar concentration, Exp 2, group Har + DMT, cerebellum.
The mark [19] stands for this setting: frontal cortex, 1 mg/kg, Molar concentration, Exp 1, group DMT, front cort.
Setting [20] is: frontal cortex, Molar concentration, Exp 1, group Har + DMT, front cort.
The mark [21] stands for this setting: frontal cortex, Molar concentration, Exp 2, group Har + DMT, front cort.

Turning to `O=C(O)Cc1c[nH]c2ccccc12` [3-IAA, indole-3-acetic acid], the “Percentage of total molar concentration of DMT and metabolites” value (shortened to “Percentage”) in data set [1] (setting [6]) is given as 97.5%; in data set [1] (Exp 1, group DMT, cerebellum), 97.9%; in data set [1] (Exp 1, group DMT, front cort) it was 97.3%; in data set [1] (setting [7]) it was 64.7%; in data set [1] (setting [8]) it was 65.3%; in data set [1] (setting [9]), 64.2%. The “Percentage” value in data set [1] (setting [10]) worked out at 25.9%; in data set [1] (setting [11]) it was 27.5%; in data set [1] (setting [12]), 24.7%. Moreover, the Brain concentration was 398.5 (128.3) ng/g in data set [1] (Experiment 1, cerebellum, group DMT (1 mg/kg s.c.), 95 min, mean (SD)); 194.1 (117.2) ng/g in data set [1] (Experiment 1, cerebellum, group Har + DMT (1 mg/kg each s.c.), 95 min, mean (SD)); 503.9 (137.7) ng/g in data set [1] (Experiment 1, frontal cortex, group DMT (1 mg/kg s.c.), 95 min, mean (SD)); 257.5 (103.6) ng/g in data set [1] (Experiment 1, frontal cortex, group Har + DMT (1 mg/kg each s.c.), 95 min, mean (SD)); 530.7 (129.8) ng/g in data set [1] (Experiment 2, cerebellum, group Har + DMT (3 mg/kg each s.c.), 65 min, mean (SD)); 652.1 (186.5) ng/g in data set [1] (Experiment 2, frontal cortex, group Har + DMT (3 mg/kg each s.c.), 65 min, mean (SD)). Besides, in data set [1] (Experiment 1, versus DMT alone), the “Lower cerebral 3-IAA concentration after co-administration of harmine and DMT” value is 50%. Further, the concentration at 95 min came to 2580 nM in data set [1] (setting [13]); 1290 nM in data set [1] (setting [14]); 2300 nM in data set [1] (cerebellum, 1 mg/kg, Brain concentration, Experiment 1, cerebellum, after DMT alone (1 mg/kg)); 398 ng/g in data set [1] (cerebellum, 1 mg/kg, Brain concentration, Experiment 1, cerebellum, group DMT (1 mg/kg s.c.), 95 min, mean (SD)); 2270 nM in data set [1] (setting [16]); 1100 nM in data set [1] (cerebellum, Brain concentration, Experiment 1, cerebellum, after harmine + DMT (1 mg/kg each)). Moreover, the concentration at 95 min in data set [1] (cerebellum, Brain concentration, Experiment 1, cerebellum, group Har (harmine 1 mg/kg s.c.), 95 min after drug, mean (SD)) is 11.1 ng/g; in data set [1] (cerebellum, Brain concentration, Experiment 1, cerebellum, group Har + DMT (1 mg/kg each s.c.), 95 min, mean (SD)), 194 ng/g; in data set [1] (setting [17]), 1110 nM; in data set [1] (frontal cortex, 1 mg/kg, Brain concentration, Experiment 1, frontal cortex, after DMT alone (1 mg/kg)) it was 2900 nM; in data set [1] (frontal cortex, 1 mg/kg, Brain concentration, Experiment 1, frontal cortex, group DMT (1 mg/kg s.c.), 95 min, mean (SD)) it was 504 ng/g; in data set [1] (setting [19]), 2880 nM. For the same compound, the concentration at 95 min in data set [1] (frontal cortex, Brain concentration, Experiment 1, frontal cortex, after harmine + DMT (1 mg/kg each), 95 min) was determined as 1500 nM; in data set [1] (frontal cortex, Brain concentration, Experiment 1, frontal cortex, group Har (harmine 1 mg/kg s.c.), 95 min, mean (SD)), 14.1 ng/g; in data set [1] (frontal cortex, Brain concentration, Experiment 1, frontal cortex, group Har + DMT (1 mg/kg each s.c.), 95 min, mean (SD)) it was 258 ng/g; in data set [1] (setting [20]), 1470 nM. The concentration at 65 min in data set [1] (setting [15]) turned out to be 3380 nM; in data set [1] (cerebellum, Brain concentration, Experiment 2, cerebellum, after harmine + DMT (3 mg/kg each)), 3000 nM; in data set [1] (cerebellum, Brain concentration, Experiment 2, cerebellum, group Har + DMT (3 mg/kg each s.c.), 65 min, mean (SD)), 531 ng/g; in data set [1] (setting [18]) it was 3030 nM; in data set [1] (frontal cortex, Brain concentration, Experiment 2, frontal cortex, after harmine + DMT (3 mg/kg each), 65 min), 3700 nM; in data set [1] (frontal cortex, Brain concentration, Experiment 2, frontal cortex, group Har + DMT (3 mg/kg each s.c.), 65 min, mean (SD)) it was 652 ng/g. Further, the concentration at 65 min in data set [1] (setting [21]) came to 3720 nM.

As to `C[N+](C)([O-])CCc1c[nH]c2ccccc12` [DMT-N-Oxide, DMT-N-oxide], the Molar concentration in data set [1] (setting [6]) is listed as 3.29 nmol/L; in data set [1] (Exp 1, group DMT, cerebellum) it was 3.16 nmol/L; in data set [1] (Exp 1, group DMT, front cort), 3.43 nmol/L; in data set [1] (setting [7]), 27.52 nmol/L; in data set [1] (setting [8]), 30.49 nmol/L; in data set [1] (setting [9]), 24.54 nmol/L. Besides, the Molar concentration in data set [1] (setting [10]) was determined as 90.73 nmol/L; in data set [1] (setting [11]) it was 131.9 nmol/L; in data set [1] (setting [12]), 49.57 nmol/L. Further, the “Percentage” value in data set [1] (setting [6]) is given as 0.1%; in data set [1] (Exp 1, group DMT, cerebellum) it was 0.1%; in data set [1] (Exp 1, group DMT, front cort), 0.1%; in data set [1] (setting [7]), 1.4%; in data set [1] (setting [8]), 1.8%; in data set [1] (setting [9]) it was 1.1%. Further, the “Percentage” value in data set [1] (setting [10]) was determined as 0.7%; in data set [1] (setting [11]) it was 1.2%; in data set [1] (setting [12]) it was 0.3%.

`CNCCc1c[nH]c2ccccc12` [NMT, N-methyltryptamine]: the “Percentage” value was 0.0% in data set [1] (setting [6]); 0.0% in data set [1] (Exp 1, group DMT, cerebellum); 0.0% in data set [1] (Exp 1, group DMT, front cort); 0.1% in data set [1] (setting [7]); 0.1% in data set [1] (setting [8]); 0.0% in data set [1] (setting [9]). Moreover, the “Percentage” value in data set [1] (setting [10]) stood at 0.1%; in data set [1] (setting [11]) it was 0.2%; in data set [1] (setting [12]), 0.1%. The concentration at 95 min in data set [1] (setting [13]) was 0.15 nM; in data set [1] (setting [14]), 1.14 nM; in data set [1] (setting [16]), 0.15 nM; in data set [1] (setting [17]) it was 1.38 nM; in data set [1] (setting [19]), 0.16 nM; in data set [1] (setting [20]), 0.89 nM. Besides, the concentration at 65 min worked out at 15.9 nM in data set [1] (setting [15]), 20.7 nM in data set [1] (setting [18]) and 11.2 nM in data set [1] (setting [21]).

As for `Cc1nccc2c1[nH]c1cc(OCCF)ccc12` [[^18F]fluoroethyl-harmol], the Kd is 2 nM in data set [2] and 300 nM in data set [3].

`Cc1nccc2c1[nH]c1cc(OCC[18F])ccc12` [[^18F]fluoroethyl-harmol]: the “In vitro/in vivo affinity difference” value in data set [4] was 150 fold.

For `CN(C)CCc1c[nH]c2cccc(OP(=O)(O)O)c12` [psilocybin], the “Occupancy at 5-HT2A receptors” value in data set [5] (PET with [^11C]Cimbi-36, ref Madsen et al., 2019) is listed as at most 70%. Also, the “Occupancy at 5-HT2A receptors in human frontal cortex” value in data set [5] (PET with [^18F]altanserin, ref Hasler et al., 2009a) is reported as at most 35%.
